This note sets out measurements from patent publication US10807971B2, “Pyrrolidinone compounds” (Eli Lilly and Company, priority 2016, dated 2020).

Counter-ions that a name gives are not always drawn.

As usually defined, the IC50 is the concentration needed to halve the response being measured.

One assay has as its system obese DIO mice. Put plainly: Therapeutic weight loss effect in HFD feeding induced obese mouse model (DIO mice). Format: in vivo. The note with it: day 14. The protocol:
To determine the therapeutic weight loss effects and improvement of metabolic parameters, the compound from the invention is tested in a HFD feeding induced obese mouse model (DIO mice). In this model, C57/B16J male mouse is fed with the 60% HFD (D12492i, Research Diets) for 16˜28 weeks to establish obesity with body weight reaching around 50 g. The mice will gradually increase their body weight to about 50 g and maintain that weight in this obese state.

The target in assay [1] is Human DPP-4 ((39-766)-His) (Homo sapiens (Human), UniProt P27487). In words: Enzymatic activity assay of DPP-4 (Gly-Pro-AMC fluorescence). Format: biochemical. The note with it: (SD, n), read-out: hDPP-4 IC50. The protocol: (§1) Inhibition of the catalytic activity of human and mouse DPP-4 by the compound in the present invention is monitored by the formation of product fluorescence AMC from substrate Gly-Pro-AMC (Sigma, G2761) on an Envision plate reader. […] The IC50 value is calculated typically from a 10-point dose titration curve using the 4-parameter logistic equation.

Assay [2] addresses mouse DPP-4 ((29-760)-His) (Mus musculus (Mouse), UniProt P28843). The assay is described as above. It counts as biochemical. Particulars: (SD, n), read-out: mDPP-4 IC50. The protocol: as §1

Sequence of Human DPP-4 ((39-766)-His) (P27487 39-766): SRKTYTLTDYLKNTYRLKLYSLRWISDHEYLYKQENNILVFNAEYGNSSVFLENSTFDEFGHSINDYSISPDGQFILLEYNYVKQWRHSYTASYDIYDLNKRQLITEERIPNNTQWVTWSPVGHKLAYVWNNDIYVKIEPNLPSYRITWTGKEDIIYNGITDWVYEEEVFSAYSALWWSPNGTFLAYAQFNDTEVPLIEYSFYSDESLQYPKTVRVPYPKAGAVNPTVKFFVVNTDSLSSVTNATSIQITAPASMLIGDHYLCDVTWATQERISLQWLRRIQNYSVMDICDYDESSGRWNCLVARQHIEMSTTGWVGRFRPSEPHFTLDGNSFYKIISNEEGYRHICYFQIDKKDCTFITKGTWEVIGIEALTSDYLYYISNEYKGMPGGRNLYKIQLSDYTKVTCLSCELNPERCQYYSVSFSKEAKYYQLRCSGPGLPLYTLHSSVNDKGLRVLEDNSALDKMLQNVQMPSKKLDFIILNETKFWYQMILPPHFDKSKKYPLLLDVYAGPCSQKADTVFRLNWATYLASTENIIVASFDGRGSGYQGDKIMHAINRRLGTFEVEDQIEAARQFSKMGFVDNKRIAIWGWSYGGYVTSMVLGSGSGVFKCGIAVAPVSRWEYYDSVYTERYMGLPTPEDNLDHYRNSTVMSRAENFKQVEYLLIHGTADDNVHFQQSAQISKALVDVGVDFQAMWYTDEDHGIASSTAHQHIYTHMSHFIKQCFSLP
Sequence of mouse DPP-4 ((29-760)-His) (P28843 29-760): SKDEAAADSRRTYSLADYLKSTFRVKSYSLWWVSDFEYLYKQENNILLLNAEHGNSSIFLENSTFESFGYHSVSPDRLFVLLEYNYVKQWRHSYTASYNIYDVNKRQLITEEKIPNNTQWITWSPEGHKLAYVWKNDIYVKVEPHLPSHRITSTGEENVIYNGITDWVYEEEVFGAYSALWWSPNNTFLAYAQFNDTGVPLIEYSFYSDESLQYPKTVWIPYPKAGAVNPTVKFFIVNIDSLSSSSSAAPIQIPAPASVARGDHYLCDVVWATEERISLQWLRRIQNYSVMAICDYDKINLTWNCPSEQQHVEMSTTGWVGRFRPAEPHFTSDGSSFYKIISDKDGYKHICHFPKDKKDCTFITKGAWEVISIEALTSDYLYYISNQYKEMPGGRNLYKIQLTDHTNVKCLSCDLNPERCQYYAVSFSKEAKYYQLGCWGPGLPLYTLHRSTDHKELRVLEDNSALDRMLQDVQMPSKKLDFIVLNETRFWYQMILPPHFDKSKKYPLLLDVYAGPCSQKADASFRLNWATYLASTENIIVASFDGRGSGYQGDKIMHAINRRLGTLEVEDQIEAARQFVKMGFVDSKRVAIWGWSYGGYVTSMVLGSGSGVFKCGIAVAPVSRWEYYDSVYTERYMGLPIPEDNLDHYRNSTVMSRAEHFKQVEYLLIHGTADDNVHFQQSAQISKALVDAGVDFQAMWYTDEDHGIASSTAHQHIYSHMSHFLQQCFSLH

In the case of `Cl.N[C@H]1C[C@@H](N2Cc3ccc(N4CCC(O)(C(=O)NCc5cc(F)cc(F)c5F)C4=O)cc3C2)CO[C@@H]1c1cc(F)ccc1F` (single isomer, unassigned; isomer 1) [Example 1], the “weight loss compared to the vehicle group” value in the assay with obese DIO mice (oral 20 mg/kg once daily) is “about 8.9%”.

For `Cl.N[C@H]1C[C@@H](n2cc(N3CCC(O)(C(=O)NCc4cc(Cl)cc(Cl)c4F)C3=O)cn2)CO[C@@H]1c1cc(F)ccc1F` (single isomer, unassigned; isomer 1) [Example 7], in the assay with obese DIO mice (oral 40 mg/kg once daily), the “weight loss compared to the vehicle group” value is recorded as “about 4.8%”. On to `N[C@H]1C[C@@H](n2ncc(N3CCC(O)(C(=O)NCc4cc(Cl)cc(Cl)c4F)C3=O)n2)CO[C@@H]1c1cc(F)ccc1F` (single isomer, unassigned; isomer 1) [Example 11, hydrochloride], for which the IC50 in assay [1] and in assay [2] was < 1.52 nM in each case.
